Reference: ChEMBL document CHEMBL1201862, “PubChem BioAssay data set” (2004)
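1) Cells in 96-well plates. 2) Compound, 48 h, 5 concentrations. 3) Linear interpolation between surrounding doses. 4) Unreached endpoint = highest concentration. The concentration for 50% growth inhibition is given as GI50.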 Calls of active or inactive are those of the source. Cut-off read from the data, not from the text of the source: active = GI50 up to about 1.1 µM and inactive = higher.

Key:
Assay in all cases: NCI tumour cell line growth inhibition, 48 h
786-0 = test system: 786-0
A498 = test system: A498
A549 = test system: A549
ACHN = test system: ACHN
CAKI-1 = test system: CAKI-1
CCRF-CEM = test system: CCRF-CEM
COLO 205 = test system: COLO 205
DU-145 = test system: DU-145
EKVX = test system: EKVX
HCC 2998 = test system: HCC 2998
HCT-116 = test system: HCT-116
HCT-15 = test system: HCT-15
HL-60 = test system: HL-60
HOP-62 = test system: HOP-62
HOP-92 = test system: HOP-92
HT-29 = test system: HT-29
Hs-578T = test system: Hs-578T
IGROV-1 = test system: IGROV-1
K562 = test system: K562
KM12 = test system: KM12
LOX IMVI = test system: LOX IMVI
M14 = test system: M14
MCF7 = test system: MCF7
MDA-MB-231 = test system: MDA-MB-231
MDA-MB-435 = test system: MDA-MB-435
MDA-N = test system: MDA-N
MOLT-4 = test system: MOLT-4
Malme-3M = test system: Malme-3M
NCI-H226 = test system: NCI-H226
NCI-H23 = test system: NCI-H23
NCI-H460 = test system: NCI-H460
NCI-H522 = test system: NCI-H522
NCI/ADR-RES = test system: NCI/ADR-RES
OVCAR-3 = test system: OVCAR-3
OVCAR-4 = test system: OVCAR-4
OVCAR-5 = test system: OVCAR-5
OVCAR-8 = test system: OVCAR-8
PC-3 = test system: PC-3
RPMI-8226 = test system: RPMI-8226
RXF 393 = test system: RXF 393
SF-268 = test system: SF-268
SF-295 = test system: SF-295
SF-539 = test system: SF-539
SK-MEL-28 = test system: SK-MEL-28
SK-MEL-2 = test system: SK-MEL-2
SK-MEL-5 = test system: SK-MEL-5
SK-OV-3 = test system: SK-OV-3
SN12C = test system: SN12C
SNB-19 = test system: SNB-19
SNB-75 = test system: SNB-75
SR = test system: SR
SW-620 = test system: SW-620
T47D = test system: T47D
TK-10 = test system: TK-10
U-251 = test system: U-251
UACC-257 = test system: UACC-257
UACC-62 = test system: UACC-62
UO-31 = test system: UO-31
BT-549 = test system: BT-549

In the case of `O=C(NCC(=O)N1CCCC1C(=O)OC(=O)C1CCCN1C(=O)CNC(=O)OCc1ccccc1)OCc1ccccc1` (stereo not drawn), the GI50 (786-0) is reported as 47.6 µM (inactive), the GI50 (A498) is reported as 73.1 µM (inactive) and the GI50 (A549) is reported as 44.8 µM (inactive). The GI50 (ACHN) was 36.2 µM (inactive), the GI50 (CAKI-1) was > 100 µM (inactive) and the GI50 (CCRF-CEM) was 35.9 µM (inactive). The GI50 (COLO 205) was 18.7 µM (inactive), the GI50 (DU-145) was 52 µM (inactive) and the GI50 (EKVX) was 42.8 µM (inactive). The GI50 (HCC 2998) was 32.7 µM (inactive), the GI50 (HCT-116) was 32.9 µM (inactive) and the GI50 (HCT-15) was 38.8 µM. The GI50 (HL-60) was 46.9 µM (inactive), the GI50 (HOP-62) was 26.2 µM (inactive) and the GI50 (HOP-92) was 31 µM (inactive). For the same molecule, the GI50 (HT-29) was 24.1 µM (inactive), the GI50 (Hs-578T) was > 100 µM (inactive) and the GI50 (IGROV-1) was 33.8 µM (inactive). For the same molecule, the GI50 (K562) was 31 µM (inactive), the GI50 (KM12) was 18.2 µM (inactive) and the GI50 (LOX IMVI) was 17.7 µM (inactive). For the same molecule, the GI50 (M14) was 17.7 µM (inactive), the GI50 (MCF7) was 21.1 µM (inactive) and the GI50 (MDA-MB-231) was 21.1 µM (inactive). The GI50 (MDA-MB-435) was 22.5 µM (inactive), the GI50 (MDA-N) was 25.3 µM (inactive) and the GI50 (MOLT-4) was 16.8 µM (inactive). For the same molecule, the GI50 (Malme-3M) was 19.1 µM (inactive), the GI50 (NCI-H226) was 26.1 µM (inactive) and the GI50 (NCI-H23) was 40.9 µM (inactive). The GI50 (NCI-H460) was 33.1 µM (inactive), the GI50 (NCI-H522) was 52.7 µM (inactive) and the GI50 (NCI/ADR-RES) was > 100 µM (inactive). For the same molecule, the GI50 (OVCAR-3) was 43.3 µM (inactive), the GI50 (OVCAR-4) was 40.6 µM (inactive) and the GI50 (OVCAR-5) was 29.1 µM (inactive). For the same molecule, the GI50 (OVCAR-8) was 41.4 µM (inactive), the GI50 (PC-3) was 35.8 µM (inactive) and the GI50 (RPMI-8226) was 21.7 µM (inactive). For the same molecule, the GI50 (RXF 393) was 24 µM (inactive), the GI50 (SF-268) was 30.4 µM (inactive) and the GI50 (SF-295) was 22.1 µM (inactive). The GI50 (SF-539) was 24.5 µM (inactive), the GI50 (SK-MEL-28) was 28.4 µM (inactive) and the GI50 (SK-MEL-2) was 20.4 µM (inactive). For the same molecule, the GI50 (SK-MEL-5) was 26.5 µM (inactive), the GI50 (SK-OV-3) was > 100 µM (inactive) and the GI50 (SN12C) was 31.8 µM (inactive). The GI50 (SNB-19) was 39.4 µM (inactive), the GI50 (SNB-75) was 14.9 µM (inactive) and the GI50 (SR) was 44.5 µM (inactive). The GI50 (SW-620) was 76.9 µM (inactive), the GI50 (T47D) was 44.9 µM (inactive) and the GI50 (TK-10) was 17.3 µM (inactive). For the same molecule, the GI50 (U-251) was 41.8 µM (inactive), the GI50 (UACC-257) was 16.7 µM (inactive) and the GI50 (UACC-62) was 14.7 µM (inactive). The GI50 (UO-31) was 65.6 µM (inactive).
In the case of `NCCCCN(CCCN)Cc1ccccc1`, the GI50 (786-0) is reported as > 100 µM (inactive), the GI50 (A498) is reported as > 100 µM (inactive) and the GI50 (A549) is reported as > 100 µM (inactive). For the same molecule, the GI50 (ACHN) was > 100 µM (inactive), the GI50 (BT-549) was > 100 µM (inactive) and the GI50 (CAKI-1) was > 100 µM (inactive). For the same molecule, the GI50 (CCRF-CEM) was > 100 µM (inactive), the GI50 (COLO 205) was > 100 µM (inactive) and the GI50 (DU-145) was > 100 µM (inactive). The GI50 (EKVX) was > 100 µM (inactive), the GI50 (HCC 2998) was > 100 µM (inactive) and the GI50 (HCT-116) was > 100 µM (inactive). The GI50 (HCT-15) was over 100 µM, the GI50 (HL-60) was > 100 µM (inactive) and the GI50 (HOP-62) was > 100 µM (inactive). For the same molecule, the GI50 (HOP-92) was > 100 µM (inactive), the GI50 (HT-29) was > 100 µM (inactive) and the GI50 (Hs-578T) was > 100 µM (inactive). The GI50 (IGROV-1) was 60 µM (inactive), the GI50 (K562) was > 100 µM (inactive) and the GI50 (KM12) was > 100 µM (inactive). For the same molecule, the GI50 (M14) was > 100 µM (inactive), the GI50 (MCF7) was > 100 µM (inactive) and the GI50 (MDA-MB-231) was > 100 µM (inactive). The GI50 (MDA-MB-435) was > 100 µM (inactive), the GI50 (MOLT-4) was > 100 µM (inactive) and the GI50 (NCI-H226) was > 100 µM (inactive). For the same molecule, the GI50 (NCI-H23) was > 100 µM (inactive), the GI50 (NCI-H460) was > 100 µM (inactive) and the GI50 (NCI-H522) was > 100 µM (inactive). The GI50 (NCI/ADR-RES) was > 100 µM (inactive), the GI50 (OVCAR-3) was > 100 µM (inactive) and the GI50 (OVCAR-4) was > 100 µM (inactive). For the same molecule, the GI50 (OVCAR-5) was > 100 µM (inactive), the GI50 (OVCAR-8) was > 100 µM (inactive) and the GI50 (PC-3) was > 100 µM (inactive). For the same molecule, the GI50 (RPMI-8226) was > 100 µM (inactive), the GI50 (RXF 393) was > 100 µM (inactive) and the GI50 (SF-268) was > 100 µM (inactive). The GI50 (SF-295) was > 100 µM (inactive), the GI50 (SF-539) was > 100 µM (inactive) and the GI50 (SK-MEL-28) was > 100 µM (inactive). The GI50 (SK-MEL-2) was > 100 µM (inactive), the GI50 (SK-MEL-5) was > 100 µM (inactive) and the GI50 (SK-OV-3) was > 100 µM (inactive). The GI50 (SN12C) was > 100 µM (inactive), the GI50 (SNB-19) was > 100 µM (inactive) and the GI50 (SNB-75) was 20.1 µM (inactive). For the same molecule, the GI50 (SW-620) was > 100 µM (inactive), the GI50 (T47D) was > 100 µM (inactive) and the GI50 (TK-10) was > 100 µM (inactive). For the same molecule, the GI50 (U-251) was > 100 µM (inactive), the GI50 (UACC-257) was > 100 µM (inactive) and the GI50 (UACC-62) was > 100 µM (inactive). The GI50 (UO-31) was > 100 µM (inactive).
